In paper PMC2362906, “Effects of new 17α-hydroxylase/C17,20-lyase inhibitors on LNCaP prostate cancer cell growth in vitro and in vivo” (British Journal of Cancer, 1999):
“Also recorded” adds a separate entry of the source.

Legend:
[1] = test system: serum testosterone; assay: Serum testosterone (RIA) in SCID mice; assay type: in vivo, male SCID mice; details: Table 2, first experiment, 28 days of treatment, 50 mg kg-1 day-1; control 1.043
Source text: (§1) Prostate cancer is the most common malignancy and the second leading cause of cancer-related deaths among men in the US and the UK (Shibata et al, 1998). […] Steroidal 17-hydroxylase/C17,20 -lyase (P450c17) (EC 1.14.99.0) was selected as the target enzyme for inhibition, as this is a key regulatory enzyme of androgen synthesis. P450c17 catal- yses two sequential reactions in the steroid biosynthetic pathway and converts pregnenolone and progesterone to the C-19 andro- gens, dehydroepiandrosterone and androstenedione respectively. This enzyme has an identical amino acid sequence in testicular and adrenal tissues (Chung et al, 1987). […] In order to evaluate the effectiveness of these inhibitors we developed a multi-step system, which utilized the LNCaP human prostate cancer cell line. LNCaP cells remain the only androgen receptor (AR)-positive prostate cancer cell line, that can be readily grown in tissue culture (Horoszewicz et al, 1983). These cells respond to androgens with increased cell proliferation and elevated expression of prostate specific antigen (PSA) (Berns et al, 1993). LNCaP cells at early passages are not only androgen-responsive, but also androgen- dependent (Pousette et al, 1997). This is similar to the situation in most tumours of prostatic cancer patients, which are initially highly responsive and dependent on androgens. […] Therefore, we employed LNCaP cells as a model for evaluating the effectiveness of our new inhibitors of androgen synthesis. In this study the compounds selected for evaluation were two groups of azolyl steroids. […] Here we report on the application of LNCaP-CYP17-transfected cells for determining the inhibitory potencies of the new compounds against the P450c17 enzyme. […] We designed and evaluated two groups of azolyl steroids: 5-non-competitive inhibitors (5NCIs), VN/63-1, VN/85-1, VN/87-1 and their corresponding 4 derivatives (4NCIs), VN/107-1, VN/108-1 and VN/109-1. The human P450c17 gene was transfected into LNCaP human prostate cancer cells, and the resultant LNCaP- CYP17 cells were utilized to evaluate the inhibitory potency of the new azolyl steroids. […] We further evaluated our inhibitors in male severe combined immuno- deficient mice bearing LNCaP tumour xenografts. […] We also utilized wild-type LNCaP prostatic carcinoma cells for evaluating the direct effects of new azolyl steroids on proliferation of these cells in vitro and in vivo. MATERIALS AND METHODS Materials The human prostate cancer cell line LNCaP was obtained from the American Type Culture Collection (Rockville, MD, USA). RPMI- 1640 medium, trypsin-EDTA (0.25%/0.02%), penicillin/strepto- mycin (P/S), geniticin (G418), and LipofectAMINE were from Gibco-BRL (Grand Island, NY, USA). Fetal bovine serum (FBS) was obtained from Summit Biotechnology Inc. (Fort Collins, CO, USA) and steroid-free FBS was prepared as described previously (Klus et al, 1996). Phenol red free IMEM and trypsin-versine were purchased from Biofluids Inc. (Rockville, MD, USA). Chloroform and acetonitrile were purchased from JT Baker, Inc (Phillipsburg, NJ, USA). Hydroxypropyl cellulose (HPC) was purchased from Sigma Chemical Co. (St Louis, MO, USA). The PSA enzyme- linked immunusorbent assay (ELISA) kit was from DSL Inc. (Webster, TX, USA). Matrigel was generously supplied by Dr Hynda Kleinman (NIH, Bethesda, MD, USA). Inhibitors of androgen synthesis: VN/63-1, VN/85-1, VN/87-1, VN/107-1, VN/108-1 and VN/109-1 were synthesized in our labo- ratory as previously described (Njar et al, 1998). […] Metribolone [17-methyl-3 H]-R1881 ([3 H]-R1881: specific activity 86 Ci mmol-1 ) was purchased from Dupont NEN (Boston, MA, USA).

[2] = test system: LNCaP cells; assay: Testosterone-stimulated wild-type LNCaP cell growth; assay type: cell-based, human
Source text: as §1

[3] = test system: LNCaP cells; assay: LNCaP cell growth in steroid-free medium; assay type: cell-based, human; details: steroid-free medium
Source text: Prostate cancer is the most common malignancy and the second leading cause of cancer-related deaths among men in the US and the UK (Shibata et al, 1998). […] Steroidal 17-hydroxylase/C17,20 -lyase (P450c17) (EC 1.14.99.0) was selected as the target enzyme for inhibition, as this is a key regulatory enzyme of androgen synthesis. P450c17 catal- yses two sequential reactions in the steroid biosynthetic pathway and converts pregnenolone and progesterone to the C-19 andro- gens, dehydroepiandrosterone and androstenedione respectively. This enzyme has an identical amino acid sequence in testicular and adrenal tissues (Chung et al, 1987). […] In order to evaluate the effectiveness of these inhibitors we developed a multi-step system, which utilized the LNCaP human prostate cancer cell line. LNCaP cells remain the only androgen receptor (AR)-positive prostate cancer cell line, that can be readily grown in tissue culture (Horoszewicz et al, 1983). These cells respond to androgens with increased cell proliferation and elevated expression of prostate specific antigen (PSA) (Berns et al, 1993). LNCaP cells at early passages are not only androgen-responsive, but also androgen- dependent (Pousette et al, 1997). This is similar to the situation in most tumours of prostatic cancer patients, which are initially highly responsive and dependent on androgens. […] Therefore, we employed LNCaP cells as a model for evaluating the effectiveness of our new inhibitors of androgen synthesis. In this study the compounds selected for evaluation were two groups of azolyl steroids. […] Here we report on the application of LNCaP-CYP17-transfected cells for determining the inhibitory potencies of the new compounds against the P450c17 enzyme. […] We designed and evaluated two groups of azolyl steroids: 5-non-competitive inhibitors (5NCIs), VN/63-1, VN/85-1, VN/87-1 and their corresponding 4 derivatives (4NCIs), VN/107-1, VN/108-1 and VN/109-1. The human P450c17 gene was transfected into LNCaP human prostate cancer cells, and the resultant LNCaP- CYP17 cells were utilized to evaluate the inhibitory potency of the new azolyl steroids. […] We further evaluated our inhibitors in male severe combined immuno- deficient mice bearing LNCaP tumour xenografts. […] We also utilized wild-type LNCaP prostatic carcinoma cells for evaluating the direct effects of new azolyl steroids on proliferation of these cells in vitro and in vivo. MATERIALS AND METHODS Materials The human prostate cancer cell line LNCaP was obtained from the American Type Culture Collection (Rockville, MD, USA). RPMI- 1640 medium, trypsin-EDTA (0.25%/0.02%), penicillin/strepto- mycin (P/S), geniticin (G418), and LipofectAMINE were from Gibco-BRL (Grand Island, NY, USA). […]

[4] = test system: LNCaP cells; assay: DHT-stimulated wild-type LNCaP cell growth; assay type: cell-based, human; details: 0.03 nM DHT, 9 days
Source text: as §1

[5] = molecular target: human prostatic 5-reductase; parameters: method as in Njar et al, 1998; details: human prostatic microsomes; reported previously; ref Njar et al, 1998; cited from earlier work
[6] = test system: serum DHT; assay: Serum DHT (RIA) in SCID mice; assay type: in vivo, male SCID mice; details: Table 2, first experiment, 28 days of treatment, 50 mg kg-1 day-1; control 243.8
Source text: as §1

[7] = test system: LNCaP tumour xenografts; assay: LNCaP tumour xenograft growth in male SCID mice; assay type: in vivo; details: first experiment
Source text: as §1

[8] = test system: serum PSA; assay: Serum PSA (ELISA) in LNCaP tumour-bearing SCID mice; assay type: in vivo, male SCID mice; details: first experiment, 50 mg kg-1 day-1, 28 days
Source text: Prostate cancer is the most common malignancy and the second leading cause of cancer-related deaths among men in the US and the UK (Shibata et al, 1998). […] Steroidal 17-hydroxylase/C17,20 -lyase (P450c17) (EC 1.14.99.0) was selected as the target enzyme for inhibition, as this is a key regulatory enzyme of androgen synthesis. P450c17 catal- yses two sequential reactions in the steroid biosynthetic pathway and converts pregnenolone and progesterone to the C-19 andro- gens, dehydroepiandrosterone and androstenedione respectively. This enzyme has an identical amino acid sequence in testicular and adrenal tissues (Chung et al, 1987). […] In order to evaluate the effectiveness of these inhibitors we developed a multi-step system, which utilized the LNCaP human prostate cancer cell line. LNCaP cells remain the only androgen receptor (AR)-positive prostate cancer cell line, that can be readily grown in tissue culture (Horoszewicz et al, 1983). These cells respond to androgens with increased cell proliferation and elevated expression of prostate specific antigen (PSA) (Berns et al, 1993). LNCaP cells at early passages are not only androgen-responsive, but also androgen- dependent (Pousette et al, 1997). This is similar to the situation in most tumours of prostatic cancer patients, which are initially highly responsive and dependent on androgens. […] Therefore, we employed LNCaP cells as a model for evaluating the effectiveness of our new inhibitors of androgen synthesis. In this study the compounds selected for evaluation were two groups of azolyl steroids. […] Here we report on the application of LNCaP-CYP17-transfected cells for determining the inhibitory potencies of the new compounds against the P450c17 enzyme. […] We designed and evaluated two groups of azolyl steroids: 5-non-competitive inhibitors (5NCIs), VN/63-1, VN/85-1, VN/87-1 and their corresponding 4 derivatives (4NCIs), VN/107-1, VN/108-1 and VN/109-1. The human P450c17 gene was transfected into LNCaP human prostate cancer cells, and the resultant LNCaP- CYP17 cells were utilized to evaluate the inhibitory potency of the new azolyl steroids. […] We further evaluated our inhibitors in male severe combined immuno- deficient mice bearing LNCaP tumour xenografts. […] We also utilized wild-type LNCaP prostatic carcinoma cells for evaluating the direct effects of new azolyl steroids on proliferation of these cells in vitro and in vivo. MATERIALS AND METHODS Materials The human prostate cancer cell line LNCaP was obtained from the American Type Culture Collection (Rockville, MD, USA). RPMI- 1640 medium, trypsin-EDTA (0.25%/0.02%), penicillin/strepto- mycin (P/S), geniticin (G418), and LipofectAMINE were from Gibco-BRL (Grand Island, NY, USA). Fetal bovine serum (FBS) was obtained from Summit Biotechnology Inc. (Fort Collins, CO, USA) and steroid-free FBS was prepared as described previously (Klus et al, 1996). Phenol red free IMEM and trypsin-versine were purchased from Biofluids Inc. (Rockville, MD, USA). Chloroform and acetonitrile were purchased from JT Baker, Inc (Phillipsburg, NJ, USA). Hydroxypropyl cellulose (HPC) was purchased from Sigma Chemical Co. (St Louis, MO, USA). The PSA enzyme- linked immunusorbent assay (ELISA) kit was from DSL Inc. (Webster, TX, USA). Matrigel was generously supplied by Dr Hynda Kleinman (NIH, Bethesda, MD, USA). […]

[9] = molecular target: T1, human 17α-hydroxylase/C17,20-lyase (P450c17) expressed in LNCaP-CYP17 cells (Homo sapiens, UniProt P05093); assay: [3H]-acetic acid releasing assay (AARA) with LNCaP-CYP17 cells; assay type: cell-based; details: LNCaP-CYP17 cells, 7 μM [21-3H]17-OHP5, 16 h; mean ± s.e.m., three experiments
T1 sequence (P05093 9-508 limits assumed): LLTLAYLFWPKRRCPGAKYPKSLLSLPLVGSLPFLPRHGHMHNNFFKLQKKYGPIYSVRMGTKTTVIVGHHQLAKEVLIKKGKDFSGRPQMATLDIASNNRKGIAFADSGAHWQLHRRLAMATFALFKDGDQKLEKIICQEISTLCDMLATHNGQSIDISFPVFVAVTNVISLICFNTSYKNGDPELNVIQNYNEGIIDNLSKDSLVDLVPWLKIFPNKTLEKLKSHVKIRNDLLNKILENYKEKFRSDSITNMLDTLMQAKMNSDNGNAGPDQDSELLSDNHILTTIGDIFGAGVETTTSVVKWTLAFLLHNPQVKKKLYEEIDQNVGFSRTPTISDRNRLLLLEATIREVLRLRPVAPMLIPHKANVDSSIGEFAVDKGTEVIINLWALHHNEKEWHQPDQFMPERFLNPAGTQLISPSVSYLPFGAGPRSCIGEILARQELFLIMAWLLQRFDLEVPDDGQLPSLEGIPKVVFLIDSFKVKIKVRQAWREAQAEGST

[10] = molecular target: T2, LNCaP androgen receptor (Homo sapiens, UniProt P10275, T878A); assay: Androgen receptor binding assay ([3H]R1881 displacement in LNCaP cells); details: from growth and binding results
T2 construct: endogenous in cells; host or cells: LNCaP (wild-type, untransfected)
T2 sequence (P10275 whole entry T878A): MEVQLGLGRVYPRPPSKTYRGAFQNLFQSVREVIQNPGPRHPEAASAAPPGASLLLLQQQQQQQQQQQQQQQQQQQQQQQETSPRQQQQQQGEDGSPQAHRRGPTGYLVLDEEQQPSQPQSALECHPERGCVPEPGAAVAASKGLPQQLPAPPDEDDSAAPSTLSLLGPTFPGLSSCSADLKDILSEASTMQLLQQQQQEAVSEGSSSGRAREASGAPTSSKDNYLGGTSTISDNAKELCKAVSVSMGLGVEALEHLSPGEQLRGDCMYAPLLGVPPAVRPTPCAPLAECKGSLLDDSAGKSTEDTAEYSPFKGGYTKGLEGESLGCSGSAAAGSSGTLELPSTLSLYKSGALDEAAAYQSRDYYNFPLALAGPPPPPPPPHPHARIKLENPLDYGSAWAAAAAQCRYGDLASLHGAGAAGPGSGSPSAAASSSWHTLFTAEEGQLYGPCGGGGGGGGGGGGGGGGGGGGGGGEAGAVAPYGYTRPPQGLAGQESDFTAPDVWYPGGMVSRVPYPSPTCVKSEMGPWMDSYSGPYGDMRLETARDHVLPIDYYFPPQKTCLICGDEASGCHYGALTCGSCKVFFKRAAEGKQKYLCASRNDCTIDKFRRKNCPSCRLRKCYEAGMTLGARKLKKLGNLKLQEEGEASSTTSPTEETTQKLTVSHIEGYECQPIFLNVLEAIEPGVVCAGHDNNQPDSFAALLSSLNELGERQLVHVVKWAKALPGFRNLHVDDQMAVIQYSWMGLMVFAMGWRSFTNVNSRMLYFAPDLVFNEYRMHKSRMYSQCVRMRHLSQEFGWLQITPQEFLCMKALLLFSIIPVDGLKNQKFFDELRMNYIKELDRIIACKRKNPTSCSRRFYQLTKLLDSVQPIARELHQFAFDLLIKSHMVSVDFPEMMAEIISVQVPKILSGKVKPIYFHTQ
Source text: Prostate cancer is the most common malignancy and the second leading cause of cancer-related deaths among men in the US and the UK (Shibata et al, 1998). […] Steroidal 17-hydroxylase/C17,20 -lyase (P450c17) (EC 1.14.99.0) was selected as the target enzyme for inhibition, as this is a key regulatory enzyme of androgen synthesis. P450c17 catal- yses two sequential reactions in the steroid biosynthetic pathway and converts pregnenolone and progesterone to the C-19 andro- gens, dehydroepiandrosterone and androstenedione respectively. This enzyme has an identical amino acid sequence in testicular and adrenal tissues (Chung et al, 1987). […] In order to evaluate the effectiveness of these inhibitors we developed a multi-step system, which utilized the LNCaP human prostate cancer cell line. LNCaP cells remain the only androgen receptor (AR)-positive prostate cancer cell line, that can be readily grown in tissue culture (Horoszewicz et al, 1983). […] We designed and evaluated two groups of azolyl steroids: 5-non-competitive inhibitors (5NCIs), VN/63-1, VN/85-1, VN/87-1 and their corresponding 4 derivatives (4NCIs), VN/107-1, VN/108-1 and VN/109-1. […] We further evaluated our inhibitors in male severe combined immuno- deficient mice bearing LNCaP tumour xenografts. […]

In the case of `C[C@]12CCC(=O)C=C1CCC1C2CC[C@]2(C)C(n3ccnc3)=CCC12` (stereo partly drawn) [VN/108-1], the “Serum Testosterone” value [1] is reported as 0.081 ng/mL, the “Concentration that completely inhibited the growth stimulatory effect of testosterone” value ([2]; 0.1 nM testosterone, 9 days) is reported as 5 µM and the “Effect on growth-stimulating effects of androgens” value ([2]; wild-type LNCaP cells, testosterone or DHT) is reported as “blocked the growth-stimulating effects of androgens”. The “Effect on LNCaP cell growth in absence of androgens” value [3] was “stimulated cell growth in absence of androgens”, the “Concentration that completely blocked DHT stimulation” value [4] was 5.0 µM and the IC50 [5] was 0.142 µM. The “Serum DHT” value [6] was 122.1 pg/mL, the “Inhibition of LNCaP tumour growth (tumour volume)” value ([7]; 50 mg kg-1 day-1, 4 weeks) was 9% and the “Effect on tumour growth or tumour weights” value ([7]; 50 mg kg-1 day-1, 28 days) was “no significant effects on tumour growth or tumour weights”. For the same molecule, the “Serum PSA levels versus control” value [8] was “lowest levels of serum PSA; also recorded: significantly lower”, the IC50 [9] was 0.00296 ± 0.00078 µM and the “Character at LNCaP AR” value [10] was “partial agonist of LNCaP AR”.
